Assay results published in the NIST ThermoML archive (doi:10.1016/j.jct.2012.01.008).

Assay: xn = mol fraction of the nth substance listed
Conditions: Liquid, Vibrating tube method

CCC[N+]1(C)CCCCC1.O=S(=O)([N-]S(=O)(=O)C(F)(F)F)C(F)(F)F + COc1ccccc1
mass density [kg/m3]
Conditions | 100 kPa | 10000 kPa | 15000 kPa | 20000 kPa | 25000 kPa | 30000 kPa | 35000 kPa | 40000 kPa | 45000 kPa | 50000 kPa
298.15 K, x2 = 0.1015 | 1393.9 | 1400.6 | 1403.7 | 1406.9 | 1409.8 | 1412.7 | 1415.3 | 1418.1 | 1420.9 | 1423.5
298.15 K, x2 = 0.201 | 1376.9 | 1383.6 | 1386.7 | 1389.9 | 1392.8 | 1395.6 | 1398.2 | 1401 | 1403.8 | 1406.4
298.15 K, x2 = 0.3001 | 1356.9 | 1363.7 | 1366.6 | 1369.8 | 1372.7 | 1375.6 | 1378.4 | 1381.2 | 1383.9 | 1386.5
298.15 K, x2 = 0.4102 | 1330.3 | 1337.1 | 1340.2 | 1343.3 | 1346.2 | 1349.1 | 1351.9 | 1354.7 | 1357.6 | 1360.2
298.15 K, x2 = 0.5003 | 1304.5 | 1311.4 | 1314.4 | 1317.5 | 1320.4 | 1323.3 | 1326.2 | 1329.1 | 1331.9 | 1334.5
298.15 K, x2 = 0.6003 | 1269.5 | 1276.3 | 1279.4 | 1282.6 | 1285.5 | 1288.4 | 1291.3 | 1294 | 1296.7 | 1299.3
298.15 K, x2 = 0.7003 | 1225.7 | 1232.4 | 1235.5 | 1238.6 | 1241.5 | 1244.4 | 1247.3 | 1250.1 | 1252.8 | 1255.3
298.15 K, x2 = 0.8 | 1169.1 | 1175.8 | 1178.9 | 1182 | 1184.8 | 1187.7 | 1190.6 | 1193.3 | 1196.1 | 1198.6
298.15 K, x2 = 0.9 | 1093.1 | 1099.7 | 1102.6 | 1105.7 | 1108.4 | 1111.3 | 1114.1 | 1117 | 1119.8 | 1122.2
318.15 K, x2 = 0.1015 | 1377.3 | 1384.1 | 1387.6 | 1390.6 | 1393.7 | 1396.8 | 1399.9 | 1402.8 | 1405.7 | 1408.4
318.15 K, x2 = 0.201 | 1360 | 1366.8 | 1370.3 | 1373.3 | 1376.4 | 1379.5 | 1382.6 | 1385.4 | 1388.3 | 1391
318.15 K, x2 = 0.3001 | 1339.7 | 1346.6 | 1350 | 1353 | 1356.1 | 1359.2 | 1362.3 | 1365.2 | 1368.1 | 1370.8
318.15 K, x2 = 0.4102 | 1312.9 | 1319.9 | 1323.3 | 1326.4 | 1329.6 | 1332.7 | 1335.9 | 1338.8 | 1341.7 | 1344.5
318.15 K, x2 = 0.5003 | 1286.7 | 1293.8 | 1297.3 | 1300.4 | 1303.6 | 1306.7 | 1309.9 | 1312.8 | 1315.7 | 1318.5
318.15 K, x2 = 0.6003 | 1251.6 | 1258.8 | 1262.2 | 1265.4 | 1268.7 | 1271.8 | 1275 | 1277.9 | 1280.8 | 1283.5
318.15 K, x2 = 0.7003 | 1207.7 | 1215 | 1218.3 | 1221.5 | 1224.8 | 1227.8 | 1231 | 1233.9 | 1236.8 | 1239.5
318.15 K, x2 = 0.8 | 1150.9 | 1158.4 | 1161.7 | 1164.8 | 1168.1 | 1171.1 | 1174.2 | 1177.1 | 1180.1 | 1182.9
318.15 K, x2 = 0.9 | 1074.5 | 1082 | 1085.2 | 1088.4 | 1091.8 | 1094.8 | 1098 | 1100.8 | 1103.7 | 1106.6
348.15 K, x2 = 0.1015 | 1351.4 | 1358.7 | 1362.3 | 1366 | 1369.4 | 1372.6 | 1375.9 | 1378.9 | 1382.1 | 1384.8
348.15 K, x2 = 0.201 | 1333.7 | 1341.1 | 1344.8 | 1348.5 | 1352 | 1355.3 | 1358.4 | 1361.5 | 1364.6 | 1367.5
348.15 K, x2 = 0.3001 | 1313 | 1320.5 | 1324.2 | 1328 | 1331.5 | 1334.8 | 1338.1 | 1341.2 | 1344.4 | 1347.3
348.15 K, x2 = 0.4102 | 1285.7 | 1293.4 | 1297.2 | 1301 | 1304.6 | 1308 | 1311.3 | 1314.5 | 1317.7 | 1320.7
348.15 K, x2 = 0.5003 | 1259.5 | 1267.3 | 1271 | 1274.7 | 1278.4 | 1281.8 | 1285.2 | 1288.4 | 1291.6 | 1294.6
348.15 K, x2 = 0.6003 | 1224.1 | 1232.1 | 1235.9 | 1239.6 | 1243.2 | 1246.6 | 1250.1 | 1253.3 | 1256.5 | 1259.6
348.15 K, x2 = 0.7003 | 1179.9 | 1188.1 | 1191.9 | 1195.6 | 1199.3 | 1202.6 | 1206.1 | 1209.4 | 1212.7 | 1215.8
348.15 K, x2 = 0.8 | 1122.6 | 1130.9 | 1134.8 | 1138.7 | 1142.5 | 1145.9 | 1149.4 | 1152.8 | 1156 | 1159.2
348.15 K, x2 = 0.9 | 1046 | 1054.5 | 1058.3 | 1062.2 | 1066 | 1069.5 | 1073 | 1076.5 | 1079.7 | 1083
